These results are taken from patent publication US5677341A, “Emulsion suitable for administering a sphingolipid” (priority 1996, dated 1997).

The conditions of data set [1]: primary amine group of sphingosine; cited from earlier work.
For the next data set, the system named is protein kinase C. The settings on record: in vitro and in vivo; cited from earlier work.
The nature of data set [2]: acute toxicity on administration in the emulsion (infusion). To be noted: 120 mg per square meter, diluted to about 0.5 mg/ml in 5% dextrose, approximately one hour co-infusion with cisplatin or doxorubicin. In kind it is in vivo. As to the method:
(§1) The presently recommended dose of safingol, administered in the formulation described by the present invention, is 120 mg per square meter body surface or about 200 mg for a typical adult patient. A sterile emulsion is first diluted to a convenient drug concentration (typically about 0.5 mg/ml) using 5% dextrose for injection. A standard chemotherapeutic agent, such as cisplatin or doxorubicin, is co-infused with safingol over approximately a one hour time period. This therapy may be safety repeated every 14 to 21 days. […] Such toxicity may include intravascular hemolysis and lung embolism.

A short description of data set [3]: acute toxicity in animals when administered in organic solvents or in aqueous vehicles. In kind it is in vivo. The settings on record: similar doses, may include intravascular hemolysis and lung embolism. As for the experimental part: as §1

Regarding `CCCCCCCCCCCCC/C=C/[C@@H](O)[C@@H](N)CO` [Sphingosine, 4-sphingenine], the pKa in data set [1] is on record as ~ 6.5.
Take `CCCCCCCCCCCCCCC[C@H](O)[C@@H](N)CO` [safingol, (2S,3S)-2-amino-1,3-octadecanediol]: the “inhibition of protein kinase C” value in the data set with protein kinase C is “potent inhibitors of protein kinase C, both in vitro and in vivo”. Moreover, the “acute toxicity, administered in the emulsion of the invention” value in data set [2] is recorded as “no acute toxicity”. For the same compound, the “acute toxicity, in organic solvents or in aqueous vehicles” value in data set [3] is “unacceptable acute toxicity is observed”.
